Data on 2 compounds can be found in patent publication US10919889B2, “Chiral heterocyclic compound with hedgehog pathway antagonist activity, method and use thereof” (SUZHOU KINTOR PHARMACEUTICALS, INC., priority 2016, dated 2021).

For series [1], the target named is T1, CYP2D6 (Homo sapiens, UniProt P10635).
T1 construct: containing HLM (0.2 mg/mL), phosphate buffer (100 mM, pH 7.4); from tissue; host or cells: liver microsomes (HLM)
Kind of series: CYP liver enzyme inhibition experiment, CYP-2D6. The series is classed as in vitro ADME. The settings on record: human liver microsomes, pH 7.4, probe dextromethorphan, test compound 10 μM, HLM, dextromethorphan 5 μM, read-out: CYP-2D6 Inhibitory rate (%). The protocol: The five major CYP isozymes and their respective probe substrates were: CYP-1A2 (phenacetin, 30 μM), CYP-2C9 (toluenesulfonylurea, 100 μM), CYP-2C19 40 μM), CYP-2D6 (dextromethorphan, 5 μM) and CYP-3A4 (midazolam, 1 μM). All probes were used close to or below their KMS concentrations. The mixture (200 μL) was incubated in a 37° C. constant temperature water bath, containing HLM (0.2 mg/mL), phosphate buffer (100 mM, pH 7.4), NADPH […], test compound (10 μM) and the respective CYP probe substrate. Before the reaction with NADPH, the mixture was pre-incubated for 10 minutes to undergo inhibitor-enzyme interaction. After a specific period of time (10 minutes for CYP-1A2, 2D6 and 3A4; 30 minutes for CYP-2C9 and 2C19), the reaction was quenched by addition to 100 μL solution of appropriate amount of cold acetonitrile. Reaction system was centrifuged and injected into the LC-MS/MS to quantify the concentration of specific metabolite formed from the substrate and the CYP enzyme. Each test compound was tested at least three times independently. […]
Before the start of the reaction with NADPH, the above mixture can be pre-incubated for about 10 minutes to allow inhibitor-enzyme interactions. […] The quenched mixture can be centrifuged, and aliquots of the mixture can then be analyzed by LC-MS/MS to quantify the concentrations of specific metabolic products for each CYP isozyme. […]

The nature of series [2]: Rat pharmacokinetics experiments. It counts as in vivo, Sprague-Dawley rats. The settings on record: for Vd: read-out: Apparent volume of distribution Vd, ss; for AUC(0-t): read-out: Area under the curve AUC0-24 h; for clearance: read-out: Clearance CL; for bioavailability / concentration at 8 h: po; for concentration at 8 h: oral dose 10 mg/kg. The protocol:
Male Spraguee-Dawley rats (body weight: 220 g˜250 g) were purchased from Slac Laboratory Animals (Shanghai). […] Blood samples were taken through the posterior orbital vein and the blood samples were placed in a tube containing EDTA (as an anticoagulant) and stored in a −80° C. environment after centrifugation with a refrigerated centrifuge. Blood sample (at an amount of folds of 25 μL) was taken and cold acetonitrile containing the internal standard (100 μL) was added. Sample was centrifuged for 10 minutes to precipitate the plasma protein. Finally, supernatant (10 μL) was injected into the LC-MS/MS system for analysis.
LC-MS/MS analysis method: All samples were analyzed by LC-MS/MS system of API4000 QTRAP mass spectrometer equipped with LC-20AD and CBM-20A controllers, DGU-20A solvent degasser and SIL-20A autosampler (Japan Shimadzu, Colombia, Md., USA). A Bona Aeger Venusil XBP C18 column (50×2.1 mm; filler 5 micron particle size) was used for HPLC separation. The column temperature was maintained at 40° C. The flow rate was 0.3 mL/min and the total run time was 6 minutes.
For the quantification of MS/MS, the API4000 QTRAP mass spectrometer was operated in an ESI positive mode with multiple reaction monitoring (MRM). All compounds and internal standards were set to be monitored during a residence time of 100 milliseconds. The other MS/MS parameters were set as follows: atomization gas (GS1) at 30 psi, 551b turbine pressure, 4500V ion spray voltage, 500° C. ion source temperature. For the selected ion transitions, each analyte was tested at the optimal sensitivity of the cluster potential (DP) and the collision energy (CE). Finally, the data was collected and processed using AB SCIEX Analysist 1.5.2 data collection and integration software.
Test subjects, Sprague-Dawley rats (body weight from about 220 g to about 250 g), were purchased from Slac Laboratory Animals (Shanghai, China). All compounds tested at 1 mg/mL concentration, either intravenous injected at a tail vein at 1 mL/kg dosage for one group of test subjects or administered orally at a dose of 10 mL/kg in another group of test subjects. Then aliquots of blood samples were collected by retro-orbital venous plexus puncture at time intervals after the injection/administration. The blood samples were kept in tubes containing EDTA, centrifuged and stored at −80° C. before analysis. Blank plasma was collected by the same method before rats were treated with compounds. Plasma samples for analysis were obtained by removing about 25 μL from the saved blood sample; adding cold acetonitrile (about 100 μL) as internal standard; centrifuged for 10 minutes to precipitate plasma proteins; and collect about 10 μL of the upper clear solution for analysis done by an LC-MS/MS system.
All samples were analyzed by an API 4000 QTRAP® LC/MS/MS System equipped with Shimadzu LC-20AD pump, Shimadzu CBM-20A controller, SIL-20A autosampler and DGU-20A degasser (Shimadzu, Columbia, Md., USA). A Venusil XBP C18 HPLC Column (2.1×50 mm, 5 μm) (Bonna-Agela Technologies) was used for HPLC separation at isocratic temperature of 40° C. Flow rate was kept at 0.3 mL/min and the total run time was kept at 6 minutes.
Quantification by MS/MS is done using the above-described API 4000 QTRAP mass spectrometer equipped with multiple reaction monitoring (MRM) and positive electrospray ionization (ESI+) modes. All compounds and internal standard were detected at […] of about 100 milliseconds. Other parameters for MS/MS are shown below: Ion Source Gas 1 (GS1) at 30 psi, turbine pressure at 55 pounds, ion spray voltage at 4500 V, and ion source temperature at 500° C. MRM measurements of the analytes were performed using declustering potential (DP) and […] values optimized for each analyte. Finally, all of the operations, the acquisition and analysis of data were controlled by Analyst (version 1.5.2, AB Sciex, USA).

[3] abbreviates: male, Sprague-Dawley, plasma, intravenous injection, 2 mg/kg.
Where [4] appears, read: male, Sprague-Dawley, plasma, oral, 10 mg/kg.
The mark [5] stands for this setting: male, Sprague-Dawley, plasma, oral, 10 mg/kg, read-out: Maximum plasma concentration Cmax.
[6] abbreviates: male, Sprague-Dawley, plasma, oral, 10 mg/kg, read-out: Peak time Tmax.
Where [7] appears, read: male, Sprague-Dawley, plasma, 10 mg/kg, P.O. 10 mg/kg vs I.V. 2 mg/kg, read-out: F %.
Where [8] appears, read: male, Sprague-Dawley, plasma, 10 mg/kg, oral 10 mg/kg vs intravenous 2 mg/kg, read-out: Bioavailability F %.
The mark [9] stands for this setting: male, Sprague-Dawley, plasma, 10 mg/kg, read-out: plasma concentration after 8 hours.
The mark [10] stands for this setting: male, Sprague-Dawley, plasma, 10 mg/kg, read-out: plasma concentration after 8 hours in terms of molecular weight conversion.
[11] abbreviates: male, Sprague-Dawley, plasma, 10 mg/kg, oral, read-out: bioavailability.

Where two headings read alike, the source gives them in different places.

T1 sequence (P10635 whole entry): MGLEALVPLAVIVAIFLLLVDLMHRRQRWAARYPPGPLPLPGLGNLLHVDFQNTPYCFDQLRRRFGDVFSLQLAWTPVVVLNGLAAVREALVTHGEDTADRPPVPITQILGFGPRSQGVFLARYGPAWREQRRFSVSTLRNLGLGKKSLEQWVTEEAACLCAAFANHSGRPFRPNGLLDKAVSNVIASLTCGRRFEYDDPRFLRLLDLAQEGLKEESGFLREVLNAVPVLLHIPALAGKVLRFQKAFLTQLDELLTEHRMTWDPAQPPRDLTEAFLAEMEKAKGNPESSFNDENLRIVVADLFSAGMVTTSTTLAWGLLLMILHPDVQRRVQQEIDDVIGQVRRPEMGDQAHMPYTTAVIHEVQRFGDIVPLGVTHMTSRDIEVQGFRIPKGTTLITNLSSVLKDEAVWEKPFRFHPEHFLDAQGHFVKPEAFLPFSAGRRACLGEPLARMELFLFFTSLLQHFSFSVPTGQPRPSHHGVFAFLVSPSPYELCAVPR

Take `Cc1cnc(-c2cc(N3CCc4nc(N5CCC(O)CC5)ncc4C3C)ncc2Cl)c(C)c1` (racemic) [B]: in series [1], the inhibition at 10 min, 10 µM was determined as 30 ± 1.7%. The AUC0-24 h in series [2] (I.V., 2 mg/kg) turned out to be 2905 ng·h/mL; in series [2] (P.O., 10 mg/kg) it was 7685 ng·h/mL. In series [2] (I.V., 2 mg/kg), this compound yielded a CL of 11.4 mL/min/kg. In addition, the Vd in series [2] (setting [3]) turned out to be 3.1 L/kg. Further, the AUC(0-t) in series [2] (setting [3]) stood at 2900 ng·h/mL; in series [2] (setting [4]), 7680 ng·h/mL. In addition, the clearance in series [2] (setting [3]) is 11.4 mL/min/kg. The Cmax in series [2] (setting [5]) was 1690 ng/mL. The time of peak concentration (Tmax) in series [2] (setting [6]) was determined as 0.5 h. Also, the bioavailability in series [2] (setting [7]), in series [2] (setting [8]) and in series [2] (setting [11]) was 53% in each case. The figures for the concentration at 8 h in series [2] (setting [9]) and in series [2] (setting [10]) were 83 ng/mL and 178 nM, respectively.
With `Cc1cnc(-c2cc(N3CCc4nc(N5CCC(O)CC5)ncc4[C@H]3C)ncc2Cl)c(C)c1` [Compound B1, (R)-1-(6-(5′-chloro-3,5-dimethyl-[2,4′-bipyridin]-2′-yl)-5-methyl-5,6,7,8-tetrahydropyrido[4,3-d]pyrimidin-2-yl)piperidin-4-ol], the inhibition at 10 min, 10 µM in series [1] was found to be 24 ± 3.5%. Also, the “increase of drug exposure (AUC) over that of A-55” value in series [2] stood at 122%. Also, the AUC0-24 h was 2233 ng·h/mL in series [2] (I.V., 2 mg/kg) and 12324 ng·h/mL in series [2] (P.O., 10 mg/kg). For the same compound, the CL in series [2] (I.V., 2 mg/kg) was 14.4 mL/min/kg. The compound further came in with a t1/2 in series [2] (I.V., 2 mg/kg) of 1.7 h. Further, the Cmax in series [2] (P.O., 10 mg/kg) stood at 1520 ng/mL; in series [2] (setting [5]) it was 1520 ng/mL. Besides, the Tmax amounted to 1 h in series [2] (P.O., 10 mg/kg) and 1 h in series [2] (setting [6]). Further, the Vd in series [2] (setting [3]) stood at 2.2 L/kg. In addition, the AUC(0-t) in series [2] (setting [3]) was 2230 ng·h/mL; in series [2] (setting [4]), 12300 ng·h/mL. Further, the clearance in series [2] (setting [3]) worked out at 14.4 mL/min/kg. For the same compound, the half-life in series [2] (male, Sprague-Dawley, plasma, intravenous injection, 2 mg/kg, read-out: Half-life t1/2 (converted)) is 1.7 h. The bioavailability was 100% in series [2] (setting [7]), 100% in series [2] (setting [8]) and roughly 100% in series [2] (setting [11]). Also, the concentration at 8 h in series [2] (setting [9]) came out at 623 ng/mL; in series [2] (setting [10]), 1340 nM.
